Among the data in patent US8940774B2, “Tris-Quaternary Ammonium Salts and Methods for Modulating Neuronal Nicotinic Acetylcholine Receptors” (University of Kentucky Research Foundation, priority 2005, dated 2015) are inhibition and Ki values, retold here.

Like-named read-outs stand apart in the source and are kept apart here.

A word on the inhibition: it is the change of the read-out against control, counted positive when it falls.

Experiment [1] relates to NIC-evoked [3H]DA release from rat striatal slices. The experiment in a line: Nicotine-evoked [3H]dopamine release assay, superfused rat striatal slices. The class given is cell-based. Conditions: 100 nM analog superfused 60 minutes prior to NIC (10 μM), percent of that in the absence of analog. The protocol:
Rat striatal slices (500 μm thickness, 6-8 mg wet weight) were incubated for 30 minutes in Krebs buffer (118 mM NaCl, 4.7 mM KCl, 1.2 mM MgCl2, 1.0 mM NaH2PO4, 1.3 mM CaCl2, 11.1 mM glucose, 25 mM NaHCO3, 0.11 mM L-ascorbic acid and 0.004 mM disodium EDTA; pH 7.4, and saturated with 95% O2/5% CO2) in a metabolic shaker at 34° C. Slices were rinsed with 15 mL of fresh buffer and incubated for an additional 30 minutes in fresh buffer containing 0.1 μM [^3H]dopamine (DA; 6 slices/3 mL). Subsequently, slices were rinsed with 15 mL of fresh buffer and transferred to a glass superfusion chamber. Slices were superfused (1.0 mL/min) for 60 minutes with Krebs buffer containing nomifensine (10 μM) and pargyline (10 μM) and maintained at 34° C., pH 7.4 with continual aeration (95% O2/5% CO2). Two five minute samples (5 mL each) were collected to determine basal outflow of [^3H]DA. Analogs were added to the superfusion buffer after the collection of the second sample and remained in the buffer until 12 consecutive five minute samples were collected. Subsequently, S-(−)-nicotine (10 μM) was added to the buffer and an additional 12 consecutive five minute samples were collected. At the end of the experiment, each slice was solubilized and the [^3H] content of the tissue determined.
Radioactivity in the superfusate and tissue samples were determined by liquid scintillation spectroscopy. Fractional release for tritium collected in each sample was divided by the total tritium present at the time of sample collection and was expressed as a percentage of total tritium. Basal [^3H] outflow was calculated from the average of the tritium collected in the two five-minute samples just before addition of the analog. The sum of the increase in collected tritium resulting from either exposure to the test compound or exposure to S-(−)-nicotine in the absence cod presence of the test compound equaled total [^3H] overflow. [^3H] Overflow was calculated by subtracting the [^3H] outflow during an equivalent period of prestimulation from the values in samples collected during and after drug exposure. Inasmuch as the radiolabelled compounds were not separated and identified, the tritium in the superfusate is referred to as either [^3H] outflow or [^3H] overflow, rather than [^3H]DA. [^3H] Overflow primarily represents [^3H]DA in the presence of nomifesine and pargyline in the superfusion buffer. […]
Analogs were also evaluated for their ability to inhibit NIC evoked [^3H]DA release. In these experiments, the striatal slices were superfused for 60 minutes with 100 nM concentration of the analogs prior to NIC (10 μM) exposure. Antagonist activity was evaluated by comparing the NIC-evoked [^3H] overflow in the absence and presence of the analogs. The relative order of potency of the analogs for inhibition of NIC-evoked [^3H]DA release from rat striatal slices is illustrated in Table 1.
(§1) Data are % inhibition at 100 nM concentration of analog for at least 1-3 independent experiments. Specific binding in the [^3H]NIC binding assay is calculated at the difference between the total binding of [^3H]NIC and nonspecific binding in the presence of 10 μM cold nicotine. Specific binding for the [^3H]MLA binding assay is calculated as the difference between the total binding of 2.5 nM [^3H]MLA to the receptors alone and its nonspecific binding in the presence of 1 μM cold MLA. Analog-induced inhibition of nicotine-evoked [^3H]DA release is calculated as a percent of that in the absence of analog.

The target of experiment [2] is T1, α7-type neuronal nicotinic acetylcholine receptors (Rattus norvegicus, UniProt Q05941).
T1 construct: from tissue; host or cells: rat brain membranes (whole brain without cortex, striatum and cerebellum)
T1 sequence (Q05941 23-502): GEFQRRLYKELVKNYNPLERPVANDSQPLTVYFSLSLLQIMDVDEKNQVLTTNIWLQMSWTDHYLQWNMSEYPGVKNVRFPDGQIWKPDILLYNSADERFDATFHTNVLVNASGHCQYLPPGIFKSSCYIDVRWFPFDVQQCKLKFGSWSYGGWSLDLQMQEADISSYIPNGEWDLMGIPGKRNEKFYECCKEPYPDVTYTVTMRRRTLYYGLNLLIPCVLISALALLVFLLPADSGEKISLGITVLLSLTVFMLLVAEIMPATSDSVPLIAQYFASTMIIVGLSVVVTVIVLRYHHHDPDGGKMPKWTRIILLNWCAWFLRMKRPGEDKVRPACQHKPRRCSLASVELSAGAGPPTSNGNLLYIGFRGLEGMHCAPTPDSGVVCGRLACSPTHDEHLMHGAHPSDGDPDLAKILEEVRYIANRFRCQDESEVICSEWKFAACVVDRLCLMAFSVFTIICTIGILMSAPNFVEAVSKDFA
The experiment in a line: Inhibition of [3H]Methyllycaconitine (MLA) binding assay, rat brain membranes. The conditions noted are these: for inhibition at 0.1 µM: read-out: Inhibition of [3H]MLA binding. As to the method:
Rat brain was dissected into the whole brain tissue without cortex, striatum and cerebellum and was frozen in liquid nitrogen and stored at −70° C. until use. The brain tissue was homogenized with a Tekmar Polytron (setting 40) in 20 volumes of ice-cold hypotonic buffer (2 mM HEPES, 14.4 mM NaCl, 0.15 mM KCl, 0.2 mM CaCl2 and 0.1 mM MgSO4, pH=7.5). The homogenate was incubated at 37° C. for 10 minutes and centrifuged at 25,000 g for 15 minutes at […] The pellet was washed 3 times more by resuspension in 20 volumes of the same buffer and centrifugation at the above parameters. The final pellet was stored at −20° C. under 4.6 mL of the incubation buffer and was suspended just before the incubation with radioligand.
The binding of [^3H]MLA to probe α7-type neuronal nicotinic acetylcholine receptors was measured using a modification of the method of Davies at al., “Characterisation of the binding of [^3H]methyllycaconitine (MLA): a radioligand for labelling α7-type neuronal nicotinic acetylcholine receptors,” Neuropharmacology, 38, 679-690 (1999). [^3H]MLA (25.4 Ci/mmol) was purchased from Tocris Cookson Ltd., Bristol, U.K. Binding was performed in duplicate, in a final volume of 250 μL of the incubation medium, containing 20 mM HEPES, 144 mM NaCl, 1.5 mM KCl, 2 mM CaCl2, 1 mM MgSO4 and 0.05% BSA, pH=7.5. Reaction was initiated by the addition of 100 μL of membrane suspension to the samples containing a desired concentration of test compounds and […] [^3H]MLA (final concentration) and incubated for 2 hours it room temperature. Total binding was measured in the absence of unlabelled ligand, and nonspecific binding was determined by the presence of 1 μM unlabelled MLA. The binding reaction was terminated by dilution of samples with 3 mL of ice-cold incubation buffer followed by immediate filtration through glass fiber filters (S&S, grade #32, presoaked in 0.5% polyethylenimine) using a Brandel harvester system. Filters were rinsed three times with 3 mL of ice-cold buffer, transferred to scintillation vials and 4 mL of scintillation cocktail was added. Protein was measured using the Bradford dye-binding procedure with bovine serum albumin as the standard.
The tris-quaternary ammonium salts were evaluated for their ability to displace [^3H]MLA binding from rat brain membranes.
as §1

In experiment [3] the target is T2, Rat Striatal Nicotinic Receptors (Rattus norvegicus, UniProt P09483+P12390).
T2 construct: from tissue; host or cells: rat striatal membranes
T2 sequence (P09483 31-630): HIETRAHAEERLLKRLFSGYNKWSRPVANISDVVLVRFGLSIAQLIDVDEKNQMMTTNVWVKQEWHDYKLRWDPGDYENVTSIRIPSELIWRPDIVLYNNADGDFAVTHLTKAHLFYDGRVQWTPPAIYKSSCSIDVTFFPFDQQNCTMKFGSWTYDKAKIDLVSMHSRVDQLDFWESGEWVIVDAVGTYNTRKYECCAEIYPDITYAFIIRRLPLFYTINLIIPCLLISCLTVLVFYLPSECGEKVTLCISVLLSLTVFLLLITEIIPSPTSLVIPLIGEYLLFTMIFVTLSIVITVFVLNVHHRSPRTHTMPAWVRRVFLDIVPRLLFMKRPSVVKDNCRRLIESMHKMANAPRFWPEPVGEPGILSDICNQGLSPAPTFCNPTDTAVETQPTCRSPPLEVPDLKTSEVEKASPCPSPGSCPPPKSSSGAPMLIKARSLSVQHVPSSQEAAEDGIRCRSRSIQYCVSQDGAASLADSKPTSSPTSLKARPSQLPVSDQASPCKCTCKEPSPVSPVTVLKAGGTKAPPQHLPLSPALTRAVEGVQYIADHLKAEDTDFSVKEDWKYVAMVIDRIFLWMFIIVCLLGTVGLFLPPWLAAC
T2 sequence (P12390 25-500): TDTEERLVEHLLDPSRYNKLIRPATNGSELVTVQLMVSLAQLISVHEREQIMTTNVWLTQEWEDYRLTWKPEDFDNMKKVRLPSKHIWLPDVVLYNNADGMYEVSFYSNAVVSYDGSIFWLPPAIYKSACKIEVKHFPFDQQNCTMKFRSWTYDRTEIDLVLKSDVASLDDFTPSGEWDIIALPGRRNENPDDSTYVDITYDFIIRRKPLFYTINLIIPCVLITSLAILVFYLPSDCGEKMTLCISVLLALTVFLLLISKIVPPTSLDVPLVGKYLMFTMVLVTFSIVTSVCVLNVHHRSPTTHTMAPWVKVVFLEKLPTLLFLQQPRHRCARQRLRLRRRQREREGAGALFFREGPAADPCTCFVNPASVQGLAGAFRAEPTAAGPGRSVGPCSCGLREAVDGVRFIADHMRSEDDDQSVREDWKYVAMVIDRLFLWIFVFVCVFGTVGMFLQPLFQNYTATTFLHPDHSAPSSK
Nature of the experiment: Inhibition of [3H]Nicotine (NIC) binding assay, rat striatal membranes. Conditions: % inhibition at 100 nM concentration of analog, 3 nM [3H]NIC. As to the method: Striata from two rats were dissected, pooled, and homogenized with a Tekmar polytron in 10 vol of ice-cold modified Krebs-HEPES buffer (20 mM HEPES, 118 mM NaCl, 4.8 mM, KCl, 2.5 mM CaCl2, 1.2 mM MgSO4, adjusted to pH 7.5). The homogenates were incubated at 37° C. for 5 minutes and centrifuged at 15,000 g for 20 minutes. The pellet was resuspended in 10 volumes of ice-cold MilliQ water, incubated for 5 minutes at 37° C., and centrifuged at 15,000 g for 20 minutes. The second pellet was then resuspended in 10 volumes of fresh ice-cold 10% Krebs-HEPES buffer, incubated at 37° C., and centrifuged at 15,000 g for 20 minutes. The latter sequence of resuspension, incubation and centrifugation was repeated. The pellet was frozen under fresh 10% Krebs-HEPES buffer and stored at −40° C. until assay. Upon assay, the pellet was resuspended in Krebs-HEPES buffer, incubated at 37° C. for 5 minutes, and centrifuged at 15,000 g for 20 minutes. The final pellet was resuspended in 3.6 mL ice-cold MilliQ water which provided for approximately 200 μg protein per 100 μL aliquot. Competition assays were performed in duplicate in a final volume of 200 μL Krebs-HEPES buffer containing […] Tris buffer (pH 7.5 at 4° C.). Reactions were initiated by addition of 100 μL of membrane suspension to 3 nM [^3H]NIC (50 μL) and one of at least nine concentrations of analog (50 μL). After a 90 minute incubation at 4° C., reactions were terminated by dilution of the samples with 3 mL of ice-cold Krebs-HEPES buffer followed immediately by filtration through Whatman GF/B glass fiber filters (presoaked in 0.5% polyethyleneimine) using a Brandel Cell Harvester. Filters were rinsed three times with 3 mL of ice-cold Krebs-HEPES buffer, transferred to scintillation vials, and 5 mL scintillation cocktail (Research Products international Corp., Mt. Prospect, Ill.) added. Nonspecific binding determined in triplicate was defined as binding in the presence of 10 μM NIC. Binding parameters were determined using the weighted, least squares non-linear regression. The tris-quaternary ammonium salts were evaluated for their ability to displace [^3H]NIC binding from rat striatal membranes.
as §1

Setting [4] is: % inhibition at 100 nM concentration of analog, rat brain membranes, 2.5 nM [3H]MLA.

Take `Cc1ccc[n+](CCCC#Cc2cc(C#CCCC[n+]3cccc(C)c3)cc(C#CCCC[n+]3cccc(C)c3)c2)c1` [GZ550A, 1,3,5-tris-[5-(3-picolinium)-pent-1-ynyl]-benzene tribromide]: the results for the inhibition at 0.1 µM in experiment [1], in experiment [2] (setting [4]) and in experiment [3] were 46%, 0% and 10 ± 1.9%, respectively.
As for `C(#Cc1cc(C#CCCC[n+]2cccc(-c3ccccc3)c2)cc(C#CCCC[n+]2cccc(-c3ccccc3)c2)c1)CCC[n+]1cccc(-c2ccccc2)c1` [GZ550B, 1,3,5-tris-[5-(3-phenyl-pyridinium)-pent-1-ynyl]-benzene tribromide], the inhibition at 0.1 µM came out at 49% in experiment [1], 39 ± 2.2% in experiment [2] (setting [4]) and 15 ± 0.9% in experiment [3].
Taken in the same sequence, the figures for `C(#Cc1cc(C#CCCC[n+]2cccc3ccccc32)cc(C#CCCC[n+]2cccc3ccccc32)c1)CCC[n+]1cccc2ccccc21` [GZ552A, 1,3,5-tris-[5-(1-quinolinium)-pent-1-ynyl]-benzene tribromide] were 72%, 21 ± 6% and 7 ± 3.8%.
Taken in the same sequence, the figures for `C(#Cc1cc(C#CCCC[n+]2ccc3ccccc3c2)cc(C#CCCC[n+]2ccc3ccccc3c2)c1)CCC[n+]1ccc2ccccc2c1` [GZ552B, 1,3,5-tris-[5-(2-isoquinolinium)-pent-1-ynyl]-benzene tribromide] were 49%, 4.5 ± 2.6% and 9.2 ± 5%.
For `Cc1cc(C)c[n+](CCCC#Cc2cc(C#CCCC[n+]3cc(C)cc(C)c3)cc(C#CCCC[n+]3cc(C)cc(C)c3)c2)c1` [GZ553A, 1,3,5-tris-[5-(3,5-lutidinium)-pent-1-ynyl]-benzene tribromide], in that order: 31%, 0% and 8.9 ± 2.9%.
As for `Cc1cc[n+](CCCC#Cc2cc(C#CCCC[n+]3ccc(C)c(C)c3)cc(C#CCCC[n+]3ccc(C)c(C)c3)c2)cc1C` [GZ553B, 1,3,5-tris-[5-(3,4-lutidinium)-pent-1-ynyl]-benzene tribromide], the inhibition at 0.1 µM amounted to 0% in experiment [1], 1.8 ± 1.8% in experiment [2] (setting [4]) and 4 ± 1.4% in experiment [3].
As for `Cc1cccc[n+]1CCCC#Cc1cc(C#CCCC[n+]2ccccc2C)cc(C#CCCC[n+]2ccccc2C)c1` [GZ554A, 1,3,5-tris-[5-(2-picolinium)-pent-1-ynyl]-benzene tribromide], the inhibition at 0.1 µM in experiment [1] stood at 68%; in experiment [2] (setting [4]), 0%; in experiment [3] it was 4.5 ± 2%.
Regarding `Cc1cc[n+](CCCC#Cc2cc(C#CCCC[n+]3ccc(C)cc3)cc(C#CCCC[n+]3ccc(C)cc3)c2)cc1` [GZ554B, 1,3,5-tris-[5-(4-picolinium)-pent-1-ynyl]-benzene tribromide], the inhibition at 0.1 µM was found to be 34% in experiment [1], 0% in experiment [2] (setting [4]) and 21 ± 4.5% in experiment [3].
For the molecule `Cc1ccc[n+](CCCCCc2cc(CCCCC[n+]3cccc(C)c3)cc(CCCCC[n+]3cccc(C)c3)c2)c1` [GZ555A, 1,3,5-tris-[5-(3-picolinium)-pentyl]-benzene tribromide], the figures for the inhibition at 0.1 µM in experiment [1], in experiment [2] (setting [4]) and in experiment [3] were 42%, 1.2 ± 1.2% and 14 ± 6.1%, respectively.
As to `Cc1cccc[n+]1CCCCCc1cc(CCCCC[n+]2ccccc2C)cc(CCCCC[n+]2ccccc2C)c1` [GZ555B, 1,3,5-tris-[5-(2-picolinium)-pentyl]-benzene tribromide], the inhibition at 0.1 µM in experiment [1] came out at 25%; in experiment [2] (setting [4]), 0%; in experiment [3], 8.6 ± 7.2%.
On to `Cc1cc[n+](CCCCCc2cc(CCCCC[n+]3ccc(C)cc3)cc(CCCCC[n+]3ccc(C)cc3)c2)cc1` [GZ555C, 1,3,5-tris-[5-(4-picolinium)-pentyl]-benzene tribromide], for which the inhibition at 0.1 µM was 37 ± 17% in experiment [1], 0% in experiment [2] (setting [4]) and 6 ± 3.4% in experiment [3].
With `c1ccc2c(c1)ccc[n+]2CCCCCc1cc(CCCCC[n+]2cccc3ccccc32)cc(CCCCC[n+]2cccc3ccccc32)c1` [GZ556A, 1,3,5-tris-[5-(1-quinolinium)-pentyl]-benzene tribromide], the inhibition at 0.1 µM in experiment [1] is 8 ± 6.4%; in experiment [2], 6.8 ± 0.9%; in experiment [3], 5.7 ± 5.7%.
With α-bungarotoxin [reference compound], the Ki in experiment [2] (read-out: K1 value, displacement of [3H]MLA binding) was found to be 28.6 ± 5.4 nM.
